Converted amounts (≈) assume the structure as drawn. Where two headings read alike, the source gives them in different places.
How the values were obtained:
[1] = test system: MDR E. cloacae clinical isolates; assay: Resistance phenotype (MICs of antibiotics) of MDR clinical isolates; format: cell-based, Enterobacter cloacae; details: Enterobacter cloacae, read-out: MIC
[2] = test system: MDR A. baumannii clinical isolates; assay: as above; format: cell-based, Acinetobacter baumannii; details: Acinetobacter baumannii
[3] = test system: MDR E. coli clinical isolates; assay: as above; format: cell-based, Escherichia coli; details: Escherichia coli, read-out: MIC
[4] = test system: MDR K. pneumoniae clinical isolates; assay: as above; format: cell-based, Klebsiella pneumoniae; details: Klebsiella pneumoniae, read-out: MIC
[5] = test system: MDR P. aeruginosa clinical isolates; assay: as above; format: cell-based, Pseudomonas aeruginosa; details: Pseudomonas aeruginosa
[6] = test system: wild-type E. coli ATCC 25922; assay: microbe, parasite or virus in culture; format: cell-based, Escherichia coli; details: ATCC 25922
Protocol: The adjuvant activities of dUSTBβPs were evaluated using checkerboard assay as previously described ([Berry et al., 2019]). Overnight-grown bacterial culture diluted in saline to 0.5 McFarland turbidity was successively diluted 1:50 in MHB to achieve a final concentration of 5 × 10^5 CFU/mL for inoculation. The antibiotic and adjuvant were serially diluted 2-fold along the x-axis and y-axis, respectively, resulting in varying concentrations of both agents in each well. Subsequently, the 96-well plate was incubated with equal volumes of bacterial inoculum at 37°C for 18 h. Confirmation of turbidity was done using an EMax Plus microplate reader (Molecular Devices, United States) at a wavelength of 590 nm. Wells comprising MHB alone or in the presence of bacterial cells were used as negative or positive controls, respectively. Fractional inhibitory concentration index (FICI) is determined by adding the FICs of both antibiotic and adjuvant. The FIC of the antibiotic is calculated by dividing the MIC of the antibiotic in the presence of the adjuvant by the MIC of the antibiotic alone. Similarly, the FIC of the adjuvant is calculated by dividing the MIC of the adjuvant in the presence of the antibiotic by the MIC of the adjuvant alone. FICI ≤ 0.5, 0.5 < x ≤ 4, and >4 were deemed synergistic, additive, and antagonistic, respectively ([Meletiadis et al., 2010]).

Structure (SMILES) | MIC [1]; 117029 | MIC [1]; 118564 | MIC [1]; 121187 | MIC ([2]; 92247, read-out: MIC) | MIC ([3]; 94393 (mcr-1 +)) | MIC ([3]; 94474 (mcr-1 +)) | MIC [3]; 107115 | MIC [4]; 113250 | MIC [4]; 113254 | MIC [4]; 116381 | MIC ([5]; 259-96196, read-out: MIC) | MIC ([5]; 262-101856, read-out: MIC) | MIC ([5]; 264-104354, read-out: MIC) | MIC ([5]; 91433, read-out: MIC) | MIC ([2]; AB027, read-out: MIC) | MIC ([2]; AB031, read-out: MIC) | MIC ([2]; LAC-4, read-out: MIC) | MIC ([5]; 114228, read-out: MIC) | other results
C[C@@H](O)[C@H]1C(=O)N2C(C(=O)O)=C(S[C@@H]3CN[C@H](CNS(N)(=O)=O)C3)[C@H](C)[C@H]12 [DOR, doripenem] |  |  |  |  |  |  |  |  |  |  | > 1020 µg/mL | 16 µg/mL (≈ 38 µM) | 16 µg/mL (≈ 38 µM) | 16 µg/mL (≈ 38 µM) |  |  |  | 8 µg/mL (≈ 19 µM) | 
C[C@@H](O)[C@H]1C(=O)N2C(C(=O)O)=C(S[C@@H]3CN[C@H](C(=O)Nc4cccc(C(=O)O)c4)C3)[C@H](C)[C@H]12 [ETP, ertapenem] | ≤ 0.03 µg/mL |  |  |  | ≤ 0.03 µg/mL | ≤ 0.03 µg/mL | > 32 µg/mL | ≤ 0.03 µg/mL | ≤ 0.03 µg/mL | 0.12 µg/mL (≈ 0.252 µM) | > 32 µg/mL | > 32 µg/mL | > 32 µg/mL | > 32 µg/mL |  |  |  |  | 
NCC[C@H](O)C(=O)N[C@@H]1C[C@H](N)[C@@H](O[C@H]2O[C@H](CN)[C@@H](O)[C@H](O)[C@H]2O)[C@H](O)[C@H]1O[C@H]1O[C@H](CO)[C@@H](O)[C@H](N)[C@H]1O [AMK, amikacin] | 2 µg/mL (≈ 3.42 µM) | 2 µg/mL (≈ 3.42 µM) | 1 µg/mL (≈ 1.71 µM) | < 1 µg/mL | 2 µg/mL (≈ 3.42 µM) | 2 µg/mL (≈ 3.42 µM) | 2 µg/mL (≈ 3.42 µM) | ≤ 1 µg/mL | ≤ 1 µg/mL | ≤ 1 µg/mL | > 64 µg/mL | > 64 µg/mL | 8 µg/mL (≈ 13.7 µM) | > 32 µg/mL | > 64 µg/mL | 2 µg/mL (≈ 3.42 µM) | 4 µg/mL (≈ 6.83 µM) |  | 
Cc1nnc(SCC2=C(C(=O)O)N3C(=O)[C@@H](NC(=O)Cn4cnnn4)[C@H]3SC2)s1 [CFZ, cefazolin] | > 128 µg/mL | > 128 µg/mL | 32 µg/mL (≈ 70.4 µM) | 128 µg/mL (≈ 282 µM) | 1 µg/mL (≈ 2.2 µM) | 4 µg/mL (≈ 8.8 µM) | > 128 µg/mL | 1 µg/mL (≈ 2.2 µM) | 1 µg/mL (≈ 2.2 µM) | > 128 µg/mL | > 128 µg/mL | > 128 µg/mL | > 128 µg/mL | > 128 µg/mL | > 128 µg/mL | > 128 µg/mL |  |  | 
CO/N=C(\C(=O)N[C@@H]1C(=O)N2C(C(=O)O)=C(COC(C)=O)CS[C@H]12)c1csc(N)n1 [CTX, cefotaxime] |  |  |  |  |  |  |  |  |  |  | 2050 µg/mL (≈ 4500 µM) | 128 µg/mL (≈ 281 µM) | 2050 µg/mL (≈ 4500 µM) |  |  | 16 µg/mL (≈ 35.1 µM) |  | 128 µg/mL (≈ 281 µM) | MIC [2]: > 256 µg/mL; MIC [5]; 91433: 1020 µg/mL (≈ 2250 µM)
CO/N=C(\C(=O)N[C@@H]1C(=O)N2C(C(=O)[O-])=C(C[N+]3(C)CCCC3)CS[C@H]12)c1csc(N)n1 [CPM, cefepime] | ≤ 0.25 µg/mL | 0.25 µg/mL (≈ 0.52 µM) | 0.25 µg/mL (≈ 0.52 µM) | 4 µg/mL (≈ 8.32 µM) | ≤ 0.25 µg/mL | ≤ 0.25 µg/mL | > 64 µg/mL | 1 µg/mL (≈ 2.08 µM) | 1 µg/mL (≈ 2.08 µM) | 16 µg/mL (≈ 33.3 µM) | > 64 µg/mL | 32 µg/mL (≈ 66.6 µM) | 32 µg/mL (≈ 66.6 µM) | 16 µg/mL (≈ 33.3 µM) |  | 4 µg/mL (≈ 8.32 µM) |  |  | 
O=C(O)c1cn(C2CC2)c2cc(N3CCNCC3)c(F)cc2c1=O [Ciprofloxacin] |  |  |  |  |  |  |  |  |  |  |  |  |  |  |  |  |  |  | MICcombo ([6]; antibiotic with dUSTBβP 3 at 8 μg/mL): 0.002 µg/mL; MIC ([6]; Escherichia coli, ATCC25922, 18 h, antibiotic alone (Supplementary Table 7), read-out: MICantibiotic): 0.008 µg/mL
CO/N=C(\C(=O)N[C@@H]1C(=O)N2C(C(=O)O)=C(CSc3nc(=O)c(=O)[nH]n3C)CS[C@H]12)c1csc(N)n1 [CTR, ceftriaxone] |  |  |  |  |  |  |  |  |  |  | > 64 µg/mL | 64 µg/mL (≈ 115 µM) | > 64 µg/mL | > 64 µg/mL |  |  |  |  | 

Now from value to compound, other results behind:

MIC [1]; 117029 | MIC [1]; 118564 | MIC [1]; 121187 | MIC ([2]; 92247, read-out: MIC) | MIC ([3]; 94393 (mcr-1 +)) | MIC ([3]; 94474 (mcr-1 +)) | MIC [3]; 107115 | MIC [4]; 113250 | MIC [4]; 113254 | MIC [4]; 116381 | MIC ([5]; 259-96196, read-out: MIC) | MIC ([5]; 262-101856, read-out: MIC) | MIC ([5]; 264-104354, read-out: MIC) | MIC ([5]; 91433, read-out: MIC) | MIC ([2]; AB027, read-out: MIC) | MIC ([2]; AB031, read-out: MIC) | MIC ([2]; LAC-4, read-out: MIC) | MIC ([5]; 114228, read-out: MIC) | Structure (SMILES) | other results
> 32 µg/mL | > 32 µg/mL | > 32 µg/mL | 32 µg/mL (≈ 74.9 µM) | 4 µg/mL (≈ 9.36 µM) | 16 µg/mL (≈ 37.4 µM) | > 32 µg/mL | 1 µg/mL (≈ 2.34 µM) | 1 µg/mL (≈ 2.34 µM) | 16 µg/mL (≈ 37.4 µM) | > 32 µg/mL | > 32 µg/mL | > 32 µg/mL | > 32 µg/mL |  |  |  |  | CO[C@@]1(NC(=O)Cc2cccs2)C(=O)N2C(C(=O)O)=C(COC(N)=O)CS[C@@H]21 [FOX, cefoxitin] | 
0.5 µg/mL (≈ 0.895 µM) |  |  |  | 0.5 µg/mL (≈ 0.895 µM) | 1 µg/mL (≈ 1.79 µM) | 0.125 µg/mL (≈ 0.224 µM) | 1 µg/mL (≈ 1.79 µM) | 0.5 µg/mL (≈ 0.895 µM) | 0.5 µg/mL (≈ 0.895 µM) | 8 µg/mL (≈ 14.3 µM) | 8 µg/mL (≈ 14.3 µM) | 8 µg/mL (≈ 14.3 µM) | 16 µg/mL (≈ 28.6 µM) | 0.5 µg/mL (≈ 0.895 µM) | 0.25 µg/mL (≈ 0.448 µM) | 0.06 µg/mL (≈ 0.107 µM) | 8 µg/mL (≈ 14.3 µM) | CN(C)[C@@H]1C(O)=C(C(N)=O)C(=O)[C@@]2(O)C(O)=C3C(=O)c4c(O)c(NC(=O)CN5CCCC5)cc(F)c4C[C@H]3C[C@@H]12 [ERC, eravacycline] | 
4 µg/mL (≈ 7.19 µM) |  |  |  | 4 µg/mL (≈ 7.19 µM) | 16 µg/mL (≈ 28.7 µM) | 4 µg/mL (≈ 7.19 µM) | 2 µg/mL (≈ 3.59 µM) | 4 µg/mL (≈ 7.19 µM) | 4 µg/mL (≈ 7.19 µM) | 64 µg/mL (≈ 115 µM) | 64 µg/mL (≈ 115 µM) | 64 µg/mL (≈ 115 µM) | 128 µg/mL (≈ 230 µM) | 1 µg/mL (≈ 1.8 µM) | 2 µg/mL (≈ 3.59 µM) | 1 µg/mL (≈ 1.8 µM) | 16 µg/mL (≈ 28.7 µM) | CN(C)c1cc(CNCC(C)(C)C)c(O)c2c1C[C@H]1C[C@H]3[C@H](N(C)C)C(O)=C(C(N)=O)C(=O)[C@@]3(O)C(O)=C1C2=O [OMC, omadacycline] | 
0.25 µg/mL (≈ 0.835 µM) |  |  |  | 0.25 µg/mL (≈ 0.835 µM) | 0.25 µg/mL (≈ 0.835 µM) | 8 µg/mL (≈ 26.7 µM) | 0.25 µg/mL (≈ 0.835 µM) | 0.12 µg/mL (≈ 0.401 µM) | 0.5 µg/mL (≈ 1.67 µM) | 32 µg/mL (≈ 107 µM) | 32 µg/mL (≈ 107 µM) | 32 µg/mL (≈ 107 µM) | 32 µg/mL (≈ 107 µM) | 32 µg/mL (≈ 107 µM) | 0.25 µg/mL (≈ 0.835 µM) | < 1 µg/mL |  | C[C@@H](O)[C@H]1C(=O)N2C(C(=O)O)=C(SCCN=CN)C[C@H]12 [IMI, imipenem] | 
≤ 0.03 µg/mL | 0.12 µg/mL (≈ 0.313 µM) | 0.06 µg/mL (≈ 0.156 µM) | 4 µg/mL (≈ 10.4 µM) | ≤ 0.03 µg/mL | ≤ 0.03 µg/mL | 32 µg/mL (≈ 83.4 µM) | ≤ 0.03 µg/mL | ≤ 0.03 µg/mL | ≤ 0.03 µg/mL | 1020 µg/mL (≈ 2670 µM) | 32 µg/mL (≈ 83.4 µM) | 64 µg/mL (≈ 167 µM) | 16 µg/mL (≈ 41.7 µM) | 16 µg/mL (≈ 41.7 µM) | 1 µg/mL (≈ 2.61 µM) | < 1 µg/mL | 8 µg/mL (≈ 20.9 µM) | C[C@@H](O)[C@H]1C(=O)N2C(C(=O)O)=C(S[C@@H]3CN[C@H](C(=O)N(C)C)C3)[C@H](C)[C@H]12 [MER, meropenem] | 

— publication PMC8733726, “Dioctanoyl Ultrashort Tetrabasic β-Peptides Sensitize Multidrug-Resistant Gram-Negative Bacteria to Novobiocin and Rifampicin” (Frontiers in Microbiology, 2021)
